Reference: patent US20260109715A1, “IMIDAZOPYRIDINE DERIVATIVES WITH BICYCLIC STRUCTURE” (PUBLIC UNIVERSITY CORPORATION YOKOHAMA CITY UNIVERSITY, priority 2022, published 2026)

Experiments:
[1] = test system: Snhg1 transcript (NMD target gene) in EMT6 murine breast cancer cell line; assay: Measurement of NMD inhibitory activity in cells (increase in Snhg1 transcript, real-time PCR); set-up: species or system mouse; details: Mus musculus, 6 hours treatment, concentration giving 1/2 of maximum Snhg1 fold change of positive control, read-out: Test Example 2 Cell-based Snhg1 EC50
Procedure, shortened: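 EMT6 cells treated with serially diluted compound (2% DMSO final) for 6 h; Snhg1 transcript quantified by real-time PCR (ΔΔCT, Tbp endogenous control, untreated wells set to 1). EC50 taken as concentration giving half the maximum fold change of a known NMD inhibitor positive control.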

human SMG1 enzyme = human SMG1 enzyme (Homo sapiens, UniProt Q96Q15); assay: Measurement of SMG1 kinase activity (ADP-Glo Kinase Assay); assay type: biochemical; details: purified human SMG1 enzyme 5 nM, Upf1 peptide substrate, ATP 4 μM; qAC50 synonymous with IC50; read-out: Test Example 1 ADP-Glo IC50
Procedure, shortened: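 Purified human SMG1 (5 nM) preincubated with compound (1% DMSO) 15 min at room temperature in HEPES pH 7.5 buffer with MnCl2, then reacted 60 min with Upf1 peptide (8 μg/mL) and 4 μM ATP. ADP formed measured by ADP-Glo luminescence; IC50 by 4-parameter logistic fit, normalised to DMSO (0%) and enzyme-free (−100%) wells.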

[2] = test system: Snhg1 transcript in tumor tissues of mice subcutaneously implanted with EMT6 murine breast cancer cell line; assay: Evaluation of NMD inhibitory activity in vivo (Snhg1 transcript in EMT6 tumor tissue after oral administration); details: 6 hours after administration, BALB/c mice
Method: The NMD inhibitory activity of a compound of the present invention or a pharmaceutically acceptable salt thereof in vivo can be measured, for example, by the method described below. Using mice subcutaneously implanted with EMT6 murine breast cancer cell line, tumor tissues 6 hours after oral administration of a test substance are excised, and the increase in Snhg1 transcript is quantified as an indicator of NMD inhibition in the tumor, in the same manner as in the in vitro method.
In this test, NMD inhibitory activity in tumor tissues was evaluated when a test substance was orally administered to mice subcutaneously implanted with EMT6 murine breast cancer cell line. As an indicator of NMD inhibitory activity, the increase in the transcript of Snhg1, an NMD target gene, was quantified. First, BALB/c mice were subcutaneously implanted with EMT6 cells (ATCC), and engraftment was confirmed 7 days later. Six hours after administration of the test substance, mice were euthanized, and the collected tumor tissues were cryopreserved. RNA was extracted from the tumor tissues using the illustra RNAspin Mini RNA Isolation kit (GE Healthcare Life Sciences). After synthesizing cDNA using the High-Capacity cDNA Reverse Transcription Kits (Applied Biosystems, 4368813), the cDNA was mixed with PrimeTime Gene Expression Master Mix (Integrated DNA Technologies) and various probes, and gene expression was quantified by QuantStudio 6 Flex (Thermo Fisher Scientific Inc.). For the probe for the Snhg1 gene, which is an NMD target, Mm.PT.58.44039547 (FAM) (Integrated DNA Technologies) was used, and for the probe for the Gapdh gene, which is an endogenous control, Mm99999915_g2 (VIC-PL) (Applied Biosystems) was used. The relative quantification of Snhg1 transcripts in each sample was calculated by the ΔΔCT method using Gapdh as an endogenous control, and the expression level of Snhg1 in each test substance administration group was calculated by setting the expression level of the Vehicle group (0.5% methylcellulose administration group) to 1.

Sequence of human SMG1 enzyme (Q96Q15 whole entry): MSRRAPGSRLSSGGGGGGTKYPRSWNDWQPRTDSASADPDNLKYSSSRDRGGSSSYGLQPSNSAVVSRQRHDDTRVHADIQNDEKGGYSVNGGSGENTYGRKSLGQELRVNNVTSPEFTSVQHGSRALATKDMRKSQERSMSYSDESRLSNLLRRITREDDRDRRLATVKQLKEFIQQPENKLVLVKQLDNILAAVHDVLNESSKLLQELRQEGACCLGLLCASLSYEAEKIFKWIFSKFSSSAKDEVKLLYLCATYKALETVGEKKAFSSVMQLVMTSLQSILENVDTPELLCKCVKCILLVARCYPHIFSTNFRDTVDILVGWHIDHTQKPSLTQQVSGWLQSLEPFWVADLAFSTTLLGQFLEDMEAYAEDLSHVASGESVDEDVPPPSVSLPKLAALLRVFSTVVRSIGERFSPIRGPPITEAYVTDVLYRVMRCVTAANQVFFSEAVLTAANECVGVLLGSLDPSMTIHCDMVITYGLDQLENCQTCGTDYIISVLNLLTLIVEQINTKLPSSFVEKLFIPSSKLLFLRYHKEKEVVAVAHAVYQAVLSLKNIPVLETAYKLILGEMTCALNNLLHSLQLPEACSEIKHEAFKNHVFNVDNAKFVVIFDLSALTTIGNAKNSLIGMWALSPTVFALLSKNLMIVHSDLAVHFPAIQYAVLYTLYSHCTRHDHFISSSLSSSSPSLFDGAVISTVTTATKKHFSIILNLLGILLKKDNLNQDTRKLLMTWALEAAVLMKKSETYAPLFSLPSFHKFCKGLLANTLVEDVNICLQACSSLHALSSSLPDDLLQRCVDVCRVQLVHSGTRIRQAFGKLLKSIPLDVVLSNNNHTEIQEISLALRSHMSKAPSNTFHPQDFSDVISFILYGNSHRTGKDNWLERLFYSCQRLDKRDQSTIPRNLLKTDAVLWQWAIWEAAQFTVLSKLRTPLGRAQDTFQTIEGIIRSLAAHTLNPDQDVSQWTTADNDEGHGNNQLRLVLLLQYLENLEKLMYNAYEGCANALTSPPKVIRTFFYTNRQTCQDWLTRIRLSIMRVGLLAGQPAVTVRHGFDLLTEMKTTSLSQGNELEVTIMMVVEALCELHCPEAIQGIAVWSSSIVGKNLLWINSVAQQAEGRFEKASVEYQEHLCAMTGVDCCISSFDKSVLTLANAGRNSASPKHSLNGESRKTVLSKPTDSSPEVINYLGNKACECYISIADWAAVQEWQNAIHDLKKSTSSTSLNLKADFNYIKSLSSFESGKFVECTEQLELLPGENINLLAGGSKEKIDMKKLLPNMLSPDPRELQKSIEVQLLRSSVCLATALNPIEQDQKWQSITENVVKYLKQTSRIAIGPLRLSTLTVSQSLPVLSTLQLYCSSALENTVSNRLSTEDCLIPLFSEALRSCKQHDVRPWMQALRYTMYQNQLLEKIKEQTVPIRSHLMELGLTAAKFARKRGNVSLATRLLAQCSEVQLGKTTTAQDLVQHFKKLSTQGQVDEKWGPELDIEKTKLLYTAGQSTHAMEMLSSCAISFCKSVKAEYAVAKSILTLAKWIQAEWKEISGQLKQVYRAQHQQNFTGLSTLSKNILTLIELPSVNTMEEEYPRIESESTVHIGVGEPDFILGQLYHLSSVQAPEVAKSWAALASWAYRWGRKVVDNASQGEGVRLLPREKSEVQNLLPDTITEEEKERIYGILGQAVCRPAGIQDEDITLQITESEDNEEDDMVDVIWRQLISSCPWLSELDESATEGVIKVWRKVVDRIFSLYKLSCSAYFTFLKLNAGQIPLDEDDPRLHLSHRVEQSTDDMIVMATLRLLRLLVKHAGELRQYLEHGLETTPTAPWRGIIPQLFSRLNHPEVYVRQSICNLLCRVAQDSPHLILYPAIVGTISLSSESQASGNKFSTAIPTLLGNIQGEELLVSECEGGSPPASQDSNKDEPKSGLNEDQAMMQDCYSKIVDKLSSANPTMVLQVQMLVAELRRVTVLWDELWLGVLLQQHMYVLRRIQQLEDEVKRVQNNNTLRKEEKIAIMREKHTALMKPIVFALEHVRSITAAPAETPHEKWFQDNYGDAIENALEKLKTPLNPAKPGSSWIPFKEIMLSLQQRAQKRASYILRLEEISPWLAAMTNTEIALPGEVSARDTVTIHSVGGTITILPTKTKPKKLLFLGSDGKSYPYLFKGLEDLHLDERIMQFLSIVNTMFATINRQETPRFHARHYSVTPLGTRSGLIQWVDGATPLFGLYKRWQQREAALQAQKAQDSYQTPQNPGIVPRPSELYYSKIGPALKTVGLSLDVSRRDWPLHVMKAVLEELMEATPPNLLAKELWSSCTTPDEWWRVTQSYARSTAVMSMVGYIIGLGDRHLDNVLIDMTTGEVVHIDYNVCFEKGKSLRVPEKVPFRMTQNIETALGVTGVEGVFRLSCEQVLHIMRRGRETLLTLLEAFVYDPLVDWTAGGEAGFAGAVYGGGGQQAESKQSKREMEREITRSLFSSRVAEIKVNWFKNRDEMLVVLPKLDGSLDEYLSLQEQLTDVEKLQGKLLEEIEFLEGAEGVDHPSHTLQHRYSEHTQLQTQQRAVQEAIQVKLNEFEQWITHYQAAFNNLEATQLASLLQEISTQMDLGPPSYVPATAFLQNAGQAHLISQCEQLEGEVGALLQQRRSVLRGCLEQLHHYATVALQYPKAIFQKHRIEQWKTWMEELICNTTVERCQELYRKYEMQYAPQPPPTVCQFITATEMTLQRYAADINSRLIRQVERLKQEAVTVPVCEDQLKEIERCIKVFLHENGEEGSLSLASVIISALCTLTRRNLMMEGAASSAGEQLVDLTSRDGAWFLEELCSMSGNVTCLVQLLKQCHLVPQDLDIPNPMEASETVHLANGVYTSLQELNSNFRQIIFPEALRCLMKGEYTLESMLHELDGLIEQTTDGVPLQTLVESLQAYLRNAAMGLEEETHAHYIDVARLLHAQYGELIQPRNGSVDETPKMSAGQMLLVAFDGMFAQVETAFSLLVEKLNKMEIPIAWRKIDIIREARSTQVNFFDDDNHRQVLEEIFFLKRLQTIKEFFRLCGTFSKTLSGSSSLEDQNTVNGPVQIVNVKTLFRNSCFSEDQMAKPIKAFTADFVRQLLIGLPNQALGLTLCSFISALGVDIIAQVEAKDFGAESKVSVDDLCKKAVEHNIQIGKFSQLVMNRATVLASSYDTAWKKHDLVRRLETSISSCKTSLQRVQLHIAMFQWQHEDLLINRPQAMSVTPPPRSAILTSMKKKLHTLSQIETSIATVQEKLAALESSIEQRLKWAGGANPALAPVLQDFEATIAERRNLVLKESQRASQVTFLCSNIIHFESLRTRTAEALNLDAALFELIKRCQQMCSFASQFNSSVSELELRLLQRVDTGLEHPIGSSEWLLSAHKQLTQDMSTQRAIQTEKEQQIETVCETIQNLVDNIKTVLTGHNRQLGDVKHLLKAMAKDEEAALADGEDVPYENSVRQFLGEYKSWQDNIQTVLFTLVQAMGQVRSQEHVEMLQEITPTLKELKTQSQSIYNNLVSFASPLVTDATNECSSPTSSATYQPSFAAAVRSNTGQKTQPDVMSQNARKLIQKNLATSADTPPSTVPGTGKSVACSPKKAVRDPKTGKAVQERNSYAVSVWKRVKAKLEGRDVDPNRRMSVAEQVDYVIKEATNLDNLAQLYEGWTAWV

| Structure (SMILES) | EC50 [1] [nM] | IC50 (human SMG1 enzyme) [nM] | Snhg1 fold change ([2]; 12.5 mg/kg oral) | Snhg1 fold change ([2]; 10 mg/kg oral) | Snhg1 fold change ([2]; 25 mg/kg oral) | Snhg1 fold change ([2]; 30 mg/kg oral) |
| --- | --- | --- | --- | --- | --- | --- |
| CS(=O)(=O)O.[2H]C([2H])([2H])Oc1ccccc1-c1nccc2[nH]c(=O)c(-c3nc4cnc(Cl)cc4[nH]3)cc12 [Example 133, 3-(6-chloro-1H-imidazo[4,5-c]pyridin-2-yl)-5-{2-[(2H3)methyloxy]phenyl}-1,6-naphthyridin-2(1H)-one methanesulfonate] | 44 | 2.4 | 8.2 |  |  |  |
| CS(=O)(=O)O.[2H]C([2H])([2H])Oc1cccc(F)c1-c1nccc2[nH]c(=O)c(-c3nc4cnc(Cl)cc4[nH]3)cc12 [Example 135, 3-(6-chloro-1H-imidazo[4,5-c]pyridin-2-yl)-5-{2-fluoro-6-[(2H3)methyloxy]phenyl}-1,6-naphthyridin-2(1H)-one methanesulfonate] | 39 | 2.2 | 10 |  |  |  |
| CS(=O)(=O)O.[2H]C([2H])([2H])Oc1cccc(F)c1-c1nccc2[nH]c(=O)c(-c3nc4c(CC)nc(Cl)cc4[nH]3)cc12 [Example 136, 3-(6-chloro-4-ethyl-1H-imidazo[4,5-c]pyridin-2-yl)-5-{2-fluoro-6-[(2H3)methyloxy]phenyl}-1,6-naphthyridin-2(1H)-one methanesulfonate] | 5.3 | 0.63 |  | 4.8 |  |  |
| CCc1nc(Cl)cc2[nH]c(-c3cc4c(-c5c(O)cccc5F)nccc4[nH]c3=O)nc12.CS(=O)(=O)O [Example 137, 3-(6-chloro-4-ethyl-1H-imidazo[4,5-c]pyridin-2-yl)-5-(2-fluoro-6-hydroxyphenyl)-1,6-naphthyridin-2(1H)-one methanesulfonate] | 10 | 1.2 |  |  | 5.1 |  |
| COc1ncccc1-c1nccc2[nH]c(=O)c(-c3nc4c(NCC(F)(F)F)nc(Cl)cc4[nH]3)cc12.CS(=O)(=O)O [Example 142, 3-{6-chloro-4-[(2,2,2-trifluoroethyl)amino]-1H-imidazo[4,5-c]pyridin-2-yl}-5-(2-methoxypyridin-3-yl)-1,6-naphthyridin-2(1H)-one methanesulfonate] | 3.7 | 0.63 |  | 11 |  |  |
| COc1ncccc1-c1nccc2[nH]c(=O)c(-c3nc4c(NCC(F)F)nc(Cl)cc4[nH]3)cc12.CS(=O)(=O)O [Example 143, 3-{6-chloro-4-[(2,2-difluoroethyl)amino]-1H-imidazo[4,5-c]pyridin-2-yl}-5-(2-methoxypyridin-3-yl)-1,6-naphthyridin-2(1H)-one methanesulfonate] | 12 | 0.85 |  | 8.5 |  |  |
| CCc1nc(Cl)cc2[nH]c(-c3cc4c(-c5c(C)nn(C(F)F)c5C)nccc4[nH]c3=O)nc12.CS(=O)(=O)O [Example 148, 3-(6-chloro-4-ethyl-1H-imidazo[4,5-c]pyridin-2-yl)-5-[1-(difluoromethyl)-3,5-dimethyl-1H-pyrazol-4-yl]-1,6-naphthyridin-2(1H)-one methanesulfonate] | 12 | 0.73 |  | 5.8 |  |  |
| CS(=O)(=O)O.Cc1nn(C(F)F)c(C)c1-c1nccc2[nH]c(=O)c(-c3nc4c(N5CC[C@H]5C)nc(Cl)cc4[nH]3)cc12 [Example 149, 3-{6-chloro-4-[(2R)-2-methylazetidin-1-yl]-1H-imidazo[4,5-c]pyridin-2-yl}-5-[1-(difluoromethyl)-3,5-dimethyl-1H-pyrazol-4-yl]-1,6-naphthyridin-2(1H)-one methanesulfonate] | 0.61 | 0.67 |  | 12 |  |  |
| CS(=O)(=O)O.Cc1c(-c2nccc3[nH]c(=O)c(-c4nc5c(N[C@H](C)C(F)(F)F)nc(Cl)cc5[nH]4)cc23)cnn1C [Example 152, 3-(6-chloro-4-{[(2R)-1,1,1-trifluoropropan-2-yl]amino}-1H-imidazo[4,5-c]pyridin-2-yl)-5-(1,5-dimethyl-1H-pyrazol-4-yl)-1,6-naphthyridin-2(1H)-one methanesulfonate] | 4 | 1.1 |  | 7.9 |  |  |
| CS(=O)(=O)O.Cc1c(-c2nccc3[nH]c(=O)c(-c4nc5c(C6CCOCC6)nc(Cl)cc5[nH]4)cc23)c(C2CC2)nn1C(F)F [Example 153, 3-[6-chloro-4-(tetrahydro-2H-pyran-4-yl)-1H-imidazo[4,5-c]pyridin-2-yl]-5-[3-cyclopropyl-1-(difluoromethyl)-5-methyl-1H-pyrazol-4-yl]-1,6-naphthyridin-2(1H)-one methanesulfonate] | 5.1 | 0.96 |  | 6.9 |  |  |

The next lines start with results.

| EC50 [1] [nM] | IC50 (human SMG1 enzyme) [nM] | Structure (SMILES) | Snhg1 fold change ([2]; 12.5 mg/kg oral) | Snhg1 fold change ([2]; 10 mg/kg oral) | Snhg1 fold change ([2]; 25 mg/kg oral) | Snhg1 fold change ([2]; 30 mg/kg oral) |
| --- | --- | --- | --- | --- | --- | --- |
| 1.8 | 0.36 | CCc1nc(Cl)cc2[nH]c(-c3cc4c(-c5cnc(C6CC6)cc5OC)nccc4[nH]c3=O)nc12.CS(=O)(=O)O [Example 138, 3-(6-chloro-4-ethyl-1H-imidazo[4,5-c]pyridin-2-yl)-5-(6-cyclopropyl-4-methoxypyridin-3-yl)-1,6-naphthyridin-2(1H)-one methanesulfonate] |  | 12 |  |  |
| 4.3 | 0.31 | CCc1cc(OC)c(-c2nccc3[nH]c(=O)c(-c4nc5c(CC)nc(Cl)cc5[nH]4)cc23)cn1.CS(=O)(=O)O [Example 139, 3-(6-chloro-4-ethyl-1H-imidazo[4,5-c]pyridin-2-yl)-5-(6-ethyl-4-methoxypyridin-3-yl)-1,6-naphthyridin-2(1H)-one methanesulfonate] |  | 7.5 |  |  |
| 8.8 | 1 | COc1cc(C2CC2)ncc1-c1nccc2[nH]c(=O)c(-c3nc4c(C)nc(Cl)cc4[nH]3)cc12.CS(=O)(=O)O [Example 140, 3-(6-chloro-4-methyl-1H-imidazo[4,5-c]pyridin-2-yl)-5-(6-cyclopropyl-4-methoxypyridin-3-yl)-1,6-naphthyridin-2(1H)-one methanesulfonate] |  | 6.3 |  |  |
| 3.1 | 0.37 | CCc1nc(Cl)cc2[nH]c(-c3cc4c(-c5cnc(C(F)F)cc5OC)nccc4[nH]c3=O)nc12.CS(=O)(=O)O [Example 141, 3-(6-chloro-4-ethyl-1H-imidazo[4,5-c]pyridin-2-yl)-5-[6-(difluoromethyl)-4-methoxypyridin-3-yl]-1,6-naphthyridin-2(1H)-one methanesulfonate] |  | 8.4 |  |  |
| 19 | 0.95 | COc1cc(OC)c(-c2nccc3[nH]c(=O)c(-c4nc5c(C)nc(Cl)cc5[nH]4)cc23)cn1.CS(=O)(=O)O [Example 144, 3-(6-chloro-4-methyl-1H-imidazo[4,5-c]pyridin-2-yl)-5-(4,6-dimethoxypyridin-3-yl)-1,6-naphthyridin-2(1H)-one methanesulfonate] |  |  |  | 4.8 |
| 3.1 | 1.2 | CCc1nc(Cl)cc2[nH]c(-c3cc4c(-c5cnc(C(F)(F)F)cc5OC)nccc4[nH]c3=O)nc12.CS(=O)(=O)O [Example 145, 3-(6-chloro-4-ethyl-1H-imidazo[4,5-c]pyridin-2-yl)-5-[4-methoxy-6-(trifluoromethyl)pyridin-3-yl]-1,6-naphthyridin-2(1H)-one methanesulfonate] |  | 8.9 |  |  |
| 3.8 | 0.49 | CCc1nc(Cl)cc2[nH]c(-c3cc4c(-c5cnc(OC(F)F)cc5OC)nccc4[nH]c3=O)nc12.CS(=O)(=O)O [Example 146, 3-(6-chloro-4-ethyl-1H-imidazo[4,5-c]pyridin-2-yl)-5-[6-(difluoromethoxy)-4-methoxypyridin-3-yl]-1,6-naphthyridin-2(1H)-one methanesulfonate] |  | 10 |  |  |
| 3.9 | 0.67 | CCc1nc(Cl)cc2[nH]c(-c3cc4c(-c5cnc(C(C)(F)F)cc5OC)nccc4[nH]c3=O)nc12.CS(=O)(=O)O [Example 147, 3-(6-chloro-4-ethyl-1H-imidazo[4,5-c]pyridin-2-yl)-5-[6-(1,1-difluoroethyl)-4-methoxypyridin-3-yl]-1,6-naphthyridin-2(1H)-one methanesulfonate] |  | 9.5 |  |  |
